Source: US10219513B2, “Safening 4-amino-3-chloro-6-(4-chloro-2-fluoro-3-methoxyphenyl)-5-fluoropyridine-2-carboxylic acid compositions in Brassica species and methods of use thereof” (Dow AgroSciences LLC, priority 2016, dated 2019)

Columns and labels:
[1] = system: Brassica napus (all varieties of canola and oilseed rape, BRSNN); experiment: Greenhouse postemergence application, visual injury after 20-22 d, BRSNN
Procedure: (§1) Seeds of the desired test plant species were planted in Sun Gro MetroMix® 306 planting mixture, which typically has a pH of 6.0 to 6.8 and an organic matter content of about 30 percent, in plastic pots with a surface area of 103.2 square centimeters (cm^2). […] The plants were grown for 7-36 days (d) in a greenhouse with an approximate 14-hour (h) photoperiod which was maintained at about 23° C. during the day and 22° C. during the night. Nutrients and water were added on a regular basis and supplemental lighting was provided with overhead metal halide 1000-Watt lamps as necessary. The plants were employed for testing when they reached the second or third true leaf stage.
(§2) An aliquot of formulated benzyl 4-amino-3-chloro-6-(4-chloro-2-fluoro-3-methoxyphenyl)-5-fluoropyridine-2-carboxylate (florpyrauxifen-benzyl; 300 grams active ingredient per liter (g ai/L) suspension concentrate (SC)) was placed in a 25 mL glass vial and diluted in a volume of 1.25% (v/v) aqueous Agri-dex crop oil concentrated to obtain a stock solution. […] The concentrated stock solutions were diluted with an aqueous mixture of 1.25% v/v of aqueous Agri-dex crop oil concentrate to provide the appropriate application rates. Compound requirements are based upon a 12 milliliter (mL) application volume at a rate of 187 liters per hectare (L/ha). Stock solutions of the formulated materials were prepared following the same procedure. Spray solutions of the compound mixtures were prepared by adding the stock solutions to the appropriate amount of dilution solution to form a 12 mL spray solution. Formulated compounds were applied to the plant material with an overhead Mandel track sprayer equipped with 8002E nozzles calibrated to deliver 187 L/ha over an application area of 0.503 square meters (m^2) at a spray height of 18 inches (43 centimeters (cm)) above average plant canopy. Control plants were sprayed in the same manner with the solvent blank.
(§3) The treated plants and control plants were placed in a greenhouse as described above and watered by sub-irrigation to prevent wash-off of the test compounds. After 20-22 d, the condition of the test plants as compared with that of the control plants was determined visually and scored on a scale of 0 to 100 percent where 0 corresponds to no injury and 100 corresponds to complete kill. Colby's equation was used to determine the herbicidal effects expected from the mixtures.
(§4) Benzyl 4-amino-3-chloro-6-(4-chloro-2-fluoro-3-methoxyphenyl)-5-fluoropyridine-2-carboxylate (florpyrauxifen-benzyl, 300 g ai/L SC) was combined in two-, three-, and four-way mixtures with one or more of the following: clopyralid-olamine (as Lontrel™ 35A Herbicidal Concentrate), quinclorac (as Facet 75DF), isoxadifen-ethyl (100 g/L SC), cloquintocet-mexyl (120 g/L EC) or mefenpyr-diethyl (as mefenpyr-diethyl 15WP). The mixtures were applied to kale/Chinese kale (Brassica alboglabra, BRSAG), Juncea canola or brown mustard (Brassica juncea, BRSJU), rutabaga (Brassica napus var. napobrassica, BRSNA), all varieties of canola and oilseed rape (Brassica napus, BRSNN), Nexera™ canola (Brassica napus, BRSNN-NEX), winter oilseed rape (Brassica napus, BRSNW), Roundup Ready® canola (Brassica napus, RR-BRSNN), and turnip or Polish canola (Brassica rapa, BRSRR), and the phytotoxicity of the compositions was measured.
(§5) Colby's equation was used to determine the herbicidal effects expected from the mixtures evaluated in the described trials (Colby, S. R. Calculation of the synergistic and antagonistic response of herbicide combinations. Weeds 1967, 15, 20-22.).
(§6) The following equation was used to calculate the expected activity of mixtures containing two active ingredients, A and B: Expected=A+B−(A×B/100) • A=observed efficacy of active ingredient A at the same concentration as used in the mixture; • B=observed efficacy of active ingredient B at the same concentration as used in the mixture.

[2] = system: Brassica rapa (turnip or Polish canola, BRSRR); experiment: Greenhouse postemergence application, visual injury after 20-22 d, BRSRR
Procedure: as §1, §2, §3, §4, §5, §6

[3] = system: Brassica juncea (Juncea canola or brown mustard, BRSJU); experiment: Greenhouse postemergence application, visual injury after 20-22 d, BRSJU
Procedure: as §1, §2, §3, §4, §5, §6

[4] = system: Brassica napus (Roundup Ready canola, RR-BRSNN); experiment: Greenhouse postemergence application, visual injury after 20-22 d, RR-BRSNN
Procedure: as §1, §2, §3, §4, §5, §6

[5] = system: Brassica napus (winter oilseed rape, BRSNW); experiment: Greenhouse postemergence application, visual injury after 20-22 d, BRSNW
Procedure: as §1, §2, §3, §4, §5, §6

[6] = isoxadifen-ethyl 5 g ai/ha alone
[7] = isoxadifen-ethyl 10 g ai/ha alone
[8] = isoxadifen-ethyl 20 g ai/ha alone
[9] = isoxadifen-ethyl 40 g ai/ha alone
[10] = postemergence application, greenhouse, application rate (g ai/ha) varies

CCOC(=O)C1=NOC(c2ccccc2)(c2ccccc2)C1 [Isoxadifen-ethyl, ethyl 4,5-dihydro-5,5-diphenyl-1,2-oxazole-3-carboxyalte]
0%: % Visual Injury Obs ([1]; BRSNN, 5 g ai/ha) | % Visual Injury Obs ([1]; BRSNN, 10 g ai/ha) | % Visual Injury Obs ([1]; BRSNN, 20 g ai/ha) | % Visual Injury Obs ([1]; BRSNN, 40 g ai/ha) | Obs % visual injury ([1]; BRSNN, partner alone 5 g ai/ha) | Obs % visual injury ([1]; BRSNN, partner alone 10 g ai/ha) | Obs % visual injury ([1]; BRSNN, partner alone 20 g ai/ha) | Obs % visual injury ([1]; BRSNN, partner alone 40 g ai/ha) | % Visual Injury Obs [1, 6] | % Visual Injury Obs [1, 7] | % Visual Injury Obs [1, 8] | % Visual Injury Obs [1, 9] | % Visual Injury BRSNN Obs [1, 10] | % Visual Injury Obs ([2]; BRSRR, 5 g ai/ha) | % Visual Injury Obs ([2]; BRSRR, 10 g ai/ha) | % Visual Injury Obs ([2]; BRSRR, 20 g ai/ha) | % Visual Injury Obs ([2]; BRSRR, 40 g ai/ha) | Obs % visual injury ([2]; BRSRR, partner alone 5 g ai/ha) | Obs % visual injury ([2]; BRSRR, partner alone 10 g ai/ha) | Obs % visual injury ([2]; BRSRR, partner alone 20 g ai/ha) | Obs % visual injury ([2]; BRSRR, partner alone 40 g ai/ha) | % Visual Injury Obs [2, 6] | % Visual Injury Obs [2, 7] | % Visual Injury Obs [2, 8] | % Visual Injury Obs [2, 9] | % Visual Injury BRSRR Obs [2, 10] | % Visual Injury Obs ([3]; BRSJU, 5 g ai/ha) | % Visual Injury Obs ([3]; BRSJU, 10 g ai/ha) | % Visual Injury Obs ([3]; BRSJU, 20 g ai/ha) | % Visual Injury Obs ([3]; BRSJU, 40 g ai/ha) | Obs % visual injury ([3]; BRSJU, partner alone 5 g ai/ha) | Obs % visual injury ([3]; BRSJU, partner alone 10 g ai/ha) | Obs % visual injury ([3]; BRSJU, partner alone 20 g ai/ha) | Obs % visual injury ([3]; BRSJU, partner alone 40 g ai/ha) | % Visual Injury Obs [3, 6] | % Visual Injury Obs [3, 7] | % Visual Injury Obs [3, 8] | % Visual Injury Obs [3, 9] | % Visual Injury BRSJU Obs [3, 10] | % Visual Injury Obs ([4]; RR-BRSNN, 5 g ai/ha) | % Visual Injury Obs ([4]; RR-BRSNN, 10 g ai/ha) | % Visual Injury Obs ([4]; RR-BRSNN, 20 g ai/ha) | % Visual Injury Obs ([4]; RR-BRSNN, 40 g ai/ha) | Obs % visual injury ([4]; RR-BRSNN, partner alone 5 g ai/ha) | Obs % visual injury ([4]; RR-BRSNN, partner alone 10 g ai/ha) | Obs % visual injury ([4]; RR-BRSNN, partner alone 20 g ai/ha) | Obs % visual injury ([4]; RR-BRSNN, partner alone 40 g ai/ha) | % Visual Injury Obs [4, 6] | % Visual Injury Obs [4, 7] | % Visual Injury Obs [4, 8] | % Visual Injury Obs [4, 9] | % Visual Injury RR-BRSNN Obs [4, 10] | % Visual Injury Obs ([5]; BRSNW, 5 g ai/ha) | % Visual Injury Obs ([5]; BRSNW, 10 g ai/ha) | % Visual Injury Obs ([5]; BRSNW, 20 g ai/ha) | % Visual Injury Obs ([5]; BRSNW, 40 g ai/ha) | Obs % visual injury ([5]; BRSNW, partner alone 5 g ai/ha) | Obs % visual injury ([5]; BRSNW, partner alone 10 g ai/ha) | Obs % visual injury ([5]; BRSNW, partner alone 20 g ai/ha) | Obs % visual injury ([5]; BRSNW, partner alone 40 g ai/ha) | % Visual Injury Obs [5, 6] | % Visual Injury Obs [5, 7] | % Visual Injury Obs [5, 8] | % Visual Injury Obs [5, 9] | % Visual Injury BRSNW Obs [5, 10]
